Reference: US4225611A, “Novel n-substituted benzenesulfonamide, process for its preparation and medicaments containing it” (Choay S.A., priority 1977, dated 1980)

Tests used:
[1] = acute toxicity in the rat, by the oral route; conditions: in vivo, single dose
From the text: The acute toxicity is expressed by the lethal dose 50, that is to say the dose resulting in the death of 50% of the animals.
This study has been carried out on groups of 10 Swiss male mice whose weight varied from 24 to 26 g, and on groups of six Wistar male rats of 120 to 125 g.
The administration was made in a single dose by the oral route in the rats and the mice, and also by the intravenous route in the case of the mice.

stress ulcer = experiment: anti-ulcer activity: stress ulcer (total immobilization); format: in vivo, rat; conditions: 50 mg/kg oral, 1 hour before 18 hours immobilization; versus controls
Procedure: (§1) The compound according to the invention was studied for its preventive properties with respect to ulcers generated by various means. Thus the ratio in the reduction of gastric attacks caused by acetyl salicylic acid and phenylbutazone was determined, as well as the ratio in the reduction of stress ulcers and SHAY ulcers, or again vasomotor reactions to polymyxine B.
(§2) For these tests, male Wistar rats were used (from 250 to 350 g according to the test). For each test and each dose, 10 animals at least were treated.
For the stress ulcer, the rats, 1 hour after having received 50 mg/kg of the product according to the invention by the oral route, were totally immobilized for 18 hours in a cylindrical wire cage, according to the technique of ROSSI (C.R. Soc. Biol., 1956, 150, 2124-2126) and BONFILS (C.R. Soc. Biol., 1957, 151, 1149-1150). They were then sacrificed and examined.
(§3) In all the preceding tests, the results were obtained by examination of the gastric mucous membrane to determine the presence either of a congested area, or of more or less serious ulcerations.
(§4) Study of the levels of reduction of attacks in the treated animals, with respect to the controls, was effected by the method of O. FOUSSARD and G. […] (Therapie, 1972, 27, 705-721) applying the formula of J. M. LWOFF (J. Pharmacol., 1971, 2, 1, 81-83).

phenylbutazone ulcer = experiment: anti-ulcer activity: phenylbutazone ulcer; format: in vivo, rat; conditions: 50 mg/kg oral, 1 hour before 100 mg/kg phenylbutazone intraperitoneal; sacrifice 24 hours later; versus controls
Procedure: as §1, §2
(§5) In the case of acetyl salicylic acid (AAS) and of phenylbutazone, the test procedure was as follows:
(§6) administration by the oral route of 50 mg/kg of the compound in aqueous solution with 3% of gum arabic after 23 hours fasting;
(§7) initiation of ulcerogenesis 1 hour later, by the administration of 50 mg/kg of AAS by the oral route or of 100 mg/kg of phenylbutazone by the intraperitoneal route;
(§8) sacrifice of the animals 24 hours later and examination of the gastric mucous membrane.
(§9) The control animals only received AAS or phenylbutazone.
as §3
(§10) Study of the levels of reduction of attacks in the treated animals, with respect to the controls, was effected by the method of O. FOUSSARD and G. […]

[2] = test system: vasomotor lesions and hemorhagia of the glandular portion of the stomach; experiment: anti-ulcerogenic action against polymyxine B vasomotor lesions; format: in vivo, rat; conditions: 100 mg/kg oral before 1.5 mg/kg polymyxine B intraperitoneal; sacrifice two hours later; 15 rats versus 15 controls
Procedure: as §1, §2
In the tests with polymyxine B, 100 mg/kg of the compound according to the invention was administered by the oral route before the intraperitoneal injection of 1.5 mg/kg of polymyxine B, then, two hours later after this last injection, the rats were sacrificed. The injection of polymyxine B has the effect of causing vasomotor lesions and hemorhagia of the glandular portion of the stomach. It is by measurement of the extent of these lesions that the anti-ulcerogenic action of the compound was determined (A. BELL and Coll., Biologie et gastro-enterologie, 1969, 2, 117-126-Suppt. No. 2 aux Archives francaises des maladies de l'appareil digestif, 1969, 58, 10-11, October-November).

SHAY ulcer = experiment: anti-ulcer activity: SHAY ulcer (ligature of the pylorus); format: in vivo, rat; conditions: 100 mg/kg oral, 1 hour before ligature of the pylorus, versus controls
Procedure: as §1, §2
The SHAY ulcer was produced in the fasting rat after 48 hours. 47 hours after the beginning of the fast, by the oral route, 100 mg/kg of the product to be tested was administered, then, 1 hour later, ligature of the pylorus was effected after light anesthesia with ether. The sacrifice of the animals took place 12 to 24 hours after the ligature.
as §3, §4

[3] = test system: acetyl salicylic acid ulcer; experiment: anti-ulcer activity: acetyl salicylic acid ulcer; format: in vivo, rat; conditions: 50 mg/kg oral, 1 hour before 50 mg/kg AAS oral; sacrifice 24 hours later; versus controls
Procedure: as §1, §2, §5, §6, §7, §8, §9, §3, §10

## CCN1CCCC1CNS(=O)(=O)c1cc(Cl)c(N)cc1OC (stereo not shown) [(I), chloro-5 methoxy-2 amino-4 N-(N-ethyl methyl-2 pyrrolidino) benzenesulfonamide]
[1]
  LD50: 1500 mg/kg
Stress ulcer
  level of reduction of attacks, stress ulcer: 50.8%
Phenylbutazone ulcer
  level of reduction of attacks, phenylbutazone ulcer: 46.9%
[2]
  reduction in the lesions (polymyxine B): ~63%
SHAY ulcer; 12 hours of ligature
  level of reduction of attacks, SHAY ulcer, after 12 hours of ligature: 60.4%
SHAY ulcer; 24 hours of ligature
  level of reduction of attacks, SHAY ulcer, after 24 hours of ligature: 46.1%
[3]
  level of reduction of attacks, acetyl salicylic acid ulcer: 40.0%
